Source: patent US20110144079A1, “ANTIMICROBIAL SYSTEM” (priority 2008, published 2011)

Key:
MRSA [1] = experiment: Broth microdilution MIC/MBC; assay type: cell-based, methicillin-resistant S. aureus; conditions: Staphylococcus aureus; for MBC: 99.9% killing; for MIC: 24 h at 37° C.
Procedure, shortened: (§1)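 Two-fold serial dilutions of imidazolium salts (0.0000625–1% w/v) in Mueller-Hinton broth were inoculated at a final 2×10^5 CFU/ml and incubated aerobically 24 h at 37 °C, per NCCLS. MIC was read as no visible growth; MBC came from subculturing clear wells onto MHA for 24 h, scoring 99.9% killing.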

E. coli PIII [2] = experiment: Broth microdilution MIC; assay type: cell-based; conditions: Escherichia coli
Procedure, shortened: as §1

B. cenocepacia J2315 = experiment: Biofilm assay (Calgary Biofilm Device), MBEC; assay type: cell-based; conditions: B. cenocepacia J2315 24 h biofilm, 24 h challenge
Procedure, shortened: (§2)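 Each strain formed biofilms on polystyrene pegs over 24 h of gyrorotary incubation at 37° C in inoculated MHB (~10^7 CFU ml^−1). Washed biofilms were exposed to serially diluted imidazolium salts, dislodged by 5 min sonication and recovered overnight; clear wells defined eradication.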

C. tropicalis NCTC 7393 = experiment: Biofilm assay (Calgary Biofilm Device), MBEC; assay type: cell-based; conditions: C. tropicalis NCTC 7393 24 h biofilm, 24 h challenge
Procedure, shortened: as §2

E-MRSA 15 = experiment: Biofilm assay (Calgary Biofilm Device), MBEC; assay type: cell-based; conditions: E-MRSA 15 24 h biofilm, 24 h challenge
Procedure, shortened: as §2

E. coli PIII [3] = experiment: Biofilm assay (Calgary Biofilm Device), MBEC; assay type: cell-based; conditions: for MBEC: E. coli PIII 24 h biofilm, 24 h challenge; for percent weight to volume of ionic liquid that corresponds to the MBEC value: E. coli PIII biofilm
Procedure, shortened: as §2

K. aerogenes NCTC 7427 = experiment: Biofilm assay (Calgary Biofilm Device), MBEC; assay type: cell-based; conditions: K. aerogenes NCTC 7427 24 h biofilm, 24 h challenge
Procedure, shortened: as §2

P. aeruginosa PA01 = experiment: Biofilm assay (Calgary Biofilm Device), MBEC; assay type: cell-based; conditions: for MBEC: P. aeruginosa PA01 24 h biofilm, 24 h challenge; for percent weight to volume of ionic liquid that corresponds to the MBEC value: P. aeruginosa PA01 biofilm
Procedure, shortened: as §2

P. mirabilis NCTC 12442 = experiment: Biofilm assay (Calgary Biofilm Device), MBEC; assay type: cell-based; conditions: P. mirabilis NCTC 12442 24 h biofilm, 24 h challenge
Procedure, shortened: as §2

S. aureus ATCC 29213 = experiment: Biofilm assay (Calgary Biofilm Device), MBEC; assay type: cell-based; conditions: S. aureus ATCC 29213 24 h biofilm, 24 h challenge
Procedure, shortened: as §2

[4] = test system: S. epidermidis ATCC 35984; experiment: Biofilm assay (Calgary Biofilm Device), MBEC; assay type: cell-based; conditions: for MBEC: S. epidermidis ATCC 35984 24 h biofilm, 24 h challenge; for percent weight to volume of ionic liquid that corresponds to the MBEC value: S. epidermidis ATCC 35984 biofilm
Procedure, shortened: as §2

MRSA [5] = experiment: Biofilm assay (Calgary Biofilm Device), MBEC; assay type: cell-based, methicillin-resistant S. aureus; conditions: for MBEC: MRSA 24 h biofilm, 24 h challenge; for percent weight to volume of ionic liquid that corresponds to the MBEC value: MRSA biofilm
Procedure: Biofilms of each test organism were grown in the Calgary Biofilm Device (commercially available as the MBEC Assay™ for Physiology & Genetics, Innovotech Inc., Edmonton, Alberta, Canada). The device, a micro-titre plated based assay, consists of two parts; a microtitre plate containing the inoculated test medium and a polystyrene lid with 96 identical pegs on which the microbial biofilm forms under gyrorotary incubation. The biofilm assay was conducted according to the MBEC™ assay protocol as supplied by the manufacturer, with slight modifications. Inocula of each test organism were prepared in MHB as described above and adjusted to provide a final inoculum density of ˜10^7 CFU ml^−1 (as confirmed by viable count). 150 μl of the inoculated media was transferred to each well of the 96-well microtitre plate and the assay plate lid, bearing 96 pegs was placed into the microtitre plate. The MBEC assay plates were placed in a gyrorotary incubator (37° C., 95% relative humidity) for 24 h to permit growth and comparison of 24 h biofilms of each test strain. Positive and negative growth controls were included in each plate (6 replicates). Initial and 24 h planktonic viable counts were measured, as were 24 h biofilm counts, expressed as CFU peg^−1, according to manufacturers instructions. After 24 h, the peg lid of the MBEC assay plate was gently rinsed three times. After rinsing, the peg lid of the MBEC assay was transferred to a ‘challenge’ plate. Serial dilutions of each imidazolium salt were prepared in 200 μl of MHB containing various concentrations of IL in each well. Positive growth control and sterility control were included in each assay plate. […] Biofilms were dislodged into recovery media by sonication for 5 minutes and the peg lid discarded. The recovery plate is incubated overnight and visually checked after 24 h for turbidity. In addition, optical density measurements for each plate were recorded at 550 nm. Clear wells were taken as evidence of biofilm eradication and the MBEC value was assigned as the lowest concentration at which no growth was observed after 24 h incubation. Plates were incubated for a further 24 h to confirm biofilm eradication concentrations.

MRSA [6] = experiment: Zone of inhibition on MRSA-seeded agar culture plates; assay type: cell-based, methicillin-resistant S. aureus; conditions: 40 μL of ionic liquid applied to MRSA-seeded agar culture plates
Excerpt: As used herein, CyMIMCI, refers to 1-alkyl-3-methyl-imidazolium chloride ionic liquids, wherein the alkyl group is a straight chain alkyl group having y carbon atoms.

Escherichia Coli = experiment: Kill kinetics, planktonic cell cultures; assay type: cell-based
Excerpt: (§3) The kill kinetic data is provided in terms of the measured colony forming units per millilitre (CFU/mL) values, and is also provided graphically in FIGS. 9-11.

[7] = test system: Methicillin Resistant Staphylococcus Aureus (MRSA); experiment: Kill kinetics, planktonic cell cultures; assay type: cell-based
Excerpt: as §3

[8] = test system: Staphylococcus Epidermidis; experiment: Kill kinetics, planktonic cell cultures; assay type: cell-based
Excerpt: as §3

Structure (SMILES) | MBC (MRSA [1]) [µM] | MIC (MRSA [1]) [µM] | MIC (E. coli PIII [2]) [µM] | MBEC (B. cenocepacia J2315) [µM] | MBEC (C. tropicalis NCTC 7393) [µM] | MBEC (E-MRSA 15) [µM] | MBEC (E. coli PIII [3]) [µM] | percent weight to volume of ionic liquid that corresponds to the MBEC value (E. coli PIII [3]) | MBEC (K. aerogenes NCTC 7427) [µM] | MBEC (P. aeruginosa PA01) [µM] | percent weight to volume of ionic liquid that corresponds to the MBEC value (P. aeruginosa PA01) | MBEC (P. mirabilis NCTC 12442) [µM] | MBEC (S. aureus ATCC 29213) [µM] | MBEC [4] [µM] | percent weight to volume of ionic liquid that corresponds to the MBEC value [4] | MBEC (MRSA [5]) [µM] | percent weight to volume of ionic liquid that corresponds to the MBEC value (MRSA [5]) | Zone Of Inhibition Radius (MRSA [6]) [mm] | further results
CCCCCCCCCCn1cc[n+](C)c1.[Cl-] [C10MIMCl, 1-decyl-3-methylimidazolium chloride] | 643 | 160 | 321 | 19318 | 19318 | 1207 | 9659 | (0.25) % w/v | 19318 | 2415 | (0.063) % w/v | 9659 | 2415 | 4829 | (0.125) % w/v | 4829 | (0.125) % w/v | 17 | colony forming units per millilitre (Escherichia Coli; 2000 μM, 0 Minutes): 6.25 × 10^7 CFU/mL; colony forming units per millilitre (Escherichia Coli; 2000 μM, 5 Minutes): 3.33 × 10^2 CFU/mL; colony forming units per millilitre (Escherichia Coli; 2000 μM, 10 Minutes): 0.00 CFU/mL; colony forming units per millilitre (Escherichia Coli; 2000 μM, 20 Minutes): 0.00 CFU/mL; colony forming units per millilitre (Escherichia Coli; 2000 μM, 30 Minutes): 0.00 CFU/mL; colony forming units per millilitre (Escherichia Coli; 2000 μM, 45 Minutes): 0.00 CFU/mL; colony forming units per millilitre ([7]; 1379 μM, 0 Minutes): 1.10 × 10^8 CFU/mL; colony forming units per millilitre ([7]; 1379 μM, 5 Minutes): 3.67 × 10^7 CFU/mL; colony forming units per millilitre ([7]; 1379 μM, 10 Minutes): 5.00 × 10^6 CFU/mL; colony forming units per millilitre ([7]; 1379 μM, 20 Minutes): 5.75 × 10^4 CFU/mL; colony forming units per millilitre ([7]; 1379 μM, 30 Minutes): 6.67 × 10^2 CFU/mL; colony forming units per millilitre ([7]; 1379 μM, 45 Minutes): 8.33 × 10^1 CFU/mL; colony forming units per millilitre ([8]; 644 μM, 0 Minutes): 8.96 × 10^7 CFU/mL; colony forming units per millilitre ([8]; 644 μM, 5 Minutes): 8.58 × 10^5 CFU/mL; colony forming units per millilitre ([8]; 644 μM, 10 Minutes): 6.92 × 10^4 CFU/mL; colony forming units per millilitre ([8]; 644 μM, 20 Minutes): 1.06 × 10^4 CFU/mL; colony forming units per millilitre ([8]; 644 μM, 30 Minutes): 2.42 × 10^3 CFU/mL; colony forming units per millilitre ([8]; 644 μM, 45 Minutes): 9.17 × 10^2 CFU/mL
CCCCCCCCCCCCn1cc[n+](C)c1.[Cl-] [C12MIMCl, 1-dodecyl-3-methylimidazolium chloride] | 290 | 36 | 73 | 2179 | 8714 | 272 | 1089 | (0.031) % w/v | 2179 | 1089 | (0.031) % w/v | 4357 | 272 | 272 | (0.008) % w/v | 545 | (0.016) % w/v | 17 | colony forming units per millilitre (Escherichia Coli; 871 μM, 0 Minutes): 1.13 × 10^8 CFU/mL; colony forming units per millilitre (Escherichia Coli; 871 μM, 5 Minutes): 0.00 CFU/mL; colony forming units per millilitre (Escherichia Coli; 871 μM, 10 Minutes): 0.00 CFU/mL; colony forming units per millilitre (Escherichia Coli; 871 μM, 20 Minutes): 0.00 CFU/mL; colony forming units per millilitre (Escherichia Coli; 871 μM, 30 Minutes): 0.00 CFU/mL; colony forming units per millilitre (Escherichia Coli; 871 μM, 45 Minutes): 0.00 CFU/mL; colony forming units per millilitre ([7]; 290 μM, 0 Minutes): 2.08 × 10^8 CFU/mL; colony forming units per millilitre ([7]; 290 μM, 5 Minutes): 2.75 × 10^5 CFU/mL; colony forming units per millilitre ([7]; 290 μM, 10 Minutes): 0.00 CFU/mL; colony forming units per millilitre ([7]; 290 μM, 20 Minutes): 0.00 CFU/mL; colony forming units per millilitre ([7]; 290 μM, 30 Minutes): 0.00 CFU/mL; colony forming units per millilitre ([7]; 290 μM, 45 Minutes): 0.00 CFU/mL; colony forming units per millilitre ([8]; 145 μM, 0 Minutes): 6.25 × 10^7 CFU/mL; colony forming units per millilitre ([8]; 145 μM, 5 Minutes): 1.67 × 10^2 CFU/mL; colony forming units per millilitre ([8]; 145 μM, 10 Minutes): 0.00 CFU/mL; colony forming units per millilitre ([8]; 145 μM, 20 Minutes): 0.00 CFU/mL; colony forming units per millilitre ([8]; 145 μM, 30 Minutes): 0.00 CFU/mL; colony forming units per millilitre ([8]; 145 μM, 45 Minutes): 0.00 CFU/mL
